Consider two molecules from US20100249083A1, “16,17-CARBOCYCLIC CONDENSED STEROID COMPOUNDS HAVING SELECTIVE ESTROGENIC ACTIVITY” (N.V. Organon, priority 2000, published 2010).

Test [1] relates to ovariectomised (OVX) rats. The test can be described thus: Test for prevention of ovariectomy-induced bone loss in rats (anti-osteoporosis test). Type of test: in vivo, rat. The settings on record: oral, 4 weeks, trabecular bone mineral density difference 40-60%. From the text: Ovariectomy of rats induces bone loss, which is due to estrogen deficiency. Administration of estrogenic compounds prevents this effect. The test is used to evaluate a compound for anti-osteoporotic activity in ovariectomised (OVX) rats. The effect on bone mass can be evaluated by peripheral Quantitative Computed Tomography (pQCT), or by quantitative analysis of X-ray pictures. Plasma osteocalcin and urinary deoxypyridinoline, calcium and phosphate gives information on bone metabolism. Increase of uterine weight and decrease of body and thymus weight reflect estrogenic effect.
Mature virgin 225-250 g female Wistar rats. Strain: Hsd/Cpd:Wu, SPF-bred by Harlan, CPB, Zeist, The Netherlands.
On day 1 of the experiment the rats are weighed and distributed over the cages in order of bodyweight, whereby the rat with the smallest bodyweight is placed in the first cage and the heaviest rat in the final cage. Treatments are randomised over the rats.
Sham-operation and ovariectomy are performed under ether anaesthesia. After recovery from the anaesthesia, within 24 h, vehicle, reference compound or test compound is administered once or twice daily for 4 weeks. […] Trabecular bone mineral density of the metaphyseal part of the femur (FBMDDIS mg/cm^3) is measured with a pQCT (peripheral Quantitative Computed Tomography machine; XCT 960A, Stratec, Birkenfeld, Germany). […]

Test [2] is described as follows: Allen Doisy test for estrogenic activity in vivo. How it is done:
In vivo estrogenic activity was determined by means of the Allen Doisy test, described in F. Allen, L. A. Doisy, J. Amer. Med. Assoc., 81, 819-821 (1923)

Test [3] deals with T1, human estrogen receptor β (hERβ) (Homo sapiens, UniProt Q92731). Conditions: compared with (17β)-estradiol; second value of Erα/Erβ pair.
Method: (§2) Compounds are tested for their estrogen receptor activity in a binding assay and in a transactivation assay using the human estrogen receptor α or β.
(§3) Competitive binding to cytoplasmic human estrogen receptor α or β from recombinant Chinese hamster ovary (CHO) cells is used to estimate the relative binding affinity (═RBA) potency ratio) of a test compound as compared with (17β)-estradiol (E2) for estrogen receptors α or β present in the cytosol of recombinant CHO cells, stably transfected with the human estrogen receptor α (hERα) or β receptor (hERβ).
In test [4] the target is T1, human estrogen receptor β (hERβ). The test can be described thus: Estrogenic agonistic transactivation assay, CHO cells with rat oxytocin promoter and luciferase reporter. It counts as cell-based. On the set-up: expressed in transfected cells; host or cells: CHO cells with rat oxytocin promoter and luciferase reporter. The settings on record: compared with estradiol; second value of Erα/Erβ pair. From the text:
(§1) The estrogenic agonistic transactivation (potency ratio) of a test compound to stimulate the transactivation of the enzyme luciferase mediated via the estrogen receptors hERα or hERβ is compared with the standard estrogen estradiol. The antiestrogenic activity (potency ratio) of a test compound to inhibit the transactivation of the enzyme luciferase mediated via the estrogen receptors hERα or hERβ by the (17β)-estradiol is compared with the standard ICI 164.384 (=(7α,17β)-N-butyl-3,17-dihydroxy-N-methylestra-1,3,5(10)-triene-7-undecanamide).
(A reporter such as luciferase makes a cellular process visible.)

The target in test [5] is T2, human estrogen receptor α (hERα) (Homo sapiens, UniProt P03372).
T2 sequence (P03372 1-595): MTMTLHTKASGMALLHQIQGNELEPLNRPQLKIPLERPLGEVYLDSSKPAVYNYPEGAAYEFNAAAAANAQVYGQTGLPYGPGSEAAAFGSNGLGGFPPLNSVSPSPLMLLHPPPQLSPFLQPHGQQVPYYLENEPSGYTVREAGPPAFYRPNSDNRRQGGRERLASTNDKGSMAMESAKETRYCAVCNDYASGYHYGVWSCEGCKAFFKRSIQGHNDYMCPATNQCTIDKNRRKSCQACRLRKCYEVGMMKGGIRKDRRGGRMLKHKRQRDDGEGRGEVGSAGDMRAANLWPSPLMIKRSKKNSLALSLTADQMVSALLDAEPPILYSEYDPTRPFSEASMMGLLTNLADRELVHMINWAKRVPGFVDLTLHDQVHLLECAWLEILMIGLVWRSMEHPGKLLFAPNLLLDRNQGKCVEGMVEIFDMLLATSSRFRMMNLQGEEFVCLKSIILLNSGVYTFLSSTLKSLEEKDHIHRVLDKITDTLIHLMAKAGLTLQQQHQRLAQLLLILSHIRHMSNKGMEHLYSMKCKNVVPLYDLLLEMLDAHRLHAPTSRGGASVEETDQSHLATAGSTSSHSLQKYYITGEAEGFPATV
The description is as above. Type of test: cell-based. On the set-up: expressed in transfected cells; host or cells: CHO cells with rat oxytocin promoter and luciferase reporter. The settings on record: compared with estradiol; first value of Erα/Erβ pair.
Excerpt: as §1

Test [6] has as its target T2, human estrogen receptor α (hERα). The settings on record: compared with (17β)-estradiol; first value of Erα/Erβ pair.
Method: as §2, §3

T1 sequence (Q92731 whole entry): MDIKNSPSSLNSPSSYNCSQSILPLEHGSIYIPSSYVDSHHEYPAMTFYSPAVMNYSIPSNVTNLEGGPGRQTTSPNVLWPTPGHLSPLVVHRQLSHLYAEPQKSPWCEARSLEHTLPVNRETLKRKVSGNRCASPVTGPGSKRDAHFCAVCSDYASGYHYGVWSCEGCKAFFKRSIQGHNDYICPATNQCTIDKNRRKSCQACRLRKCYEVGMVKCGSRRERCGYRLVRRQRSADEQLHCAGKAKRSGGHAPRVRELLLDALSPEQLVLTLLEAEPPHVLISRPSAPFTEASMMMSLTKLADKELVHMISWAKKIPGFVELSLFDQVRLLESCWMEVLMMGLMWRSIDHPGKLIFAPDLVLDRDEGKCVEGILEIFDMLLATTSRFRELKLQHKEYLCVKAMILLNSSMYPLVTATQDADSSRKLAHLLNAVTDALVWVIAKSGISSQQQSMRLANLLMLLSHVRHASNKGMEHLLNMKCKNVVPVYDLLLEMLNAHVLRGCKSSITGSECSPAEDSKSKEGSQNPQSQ

With `CCCC1Cc2cc(O)ccc2C2CCC3(C)C(CC4CCCCC43O)C12` (stereo not drawn) [(7α,16β,17α)-7-propyl-16,24-cyclo-19,21-dinorchola-1,3,5(10)-triene-3,17-diol], in test [1], the “Osteoporosis test, minimal active dose (MAD)” value turned out to be 0.19 mg/kg. For the same molecule, the “Allen Doisy test, active dose” value in test [2] (oral) was found to be 0.125 mg/kg; in test [2] (sc), 0.024 mg/kg. In test [3], the “Binding-assay Erβ (relative binding affinity, potency ratio)” value stood at 7. For the same molecule, the “Transactivation Erβ (agonist potency ratio)” value in test [4] was under 0.1. Besides, the “Transactivation Erα (agonist potency ratio)” value in test [5] stood at 0.3. The “Binding-assay Erα (relative binding affinity, potency ratio)” value in test [6] was 15.
Consider `CCC[C@@H]1Cc2cc(O)ccc2C2CC[C@@]3(C)C(C[C@H]4CC[C@H](O)C[C@]43O)C21` (stereo partly drawn) [E, (7α,16β,17 α,22S)-7-propyl-16,24-cyclo-19,21-dinorchola-1,3,5(10)-triene-3,17,22-triol], for which the “Osteoporosis test, minimal active dose (MAD)” value in test [1] stood at 0.03 mg/kg. For the same molecule, the entries for the “Allen Doisy test, active dose” value in test [2] (oral) and in test [2] (sc) were 0.03 mg/kg and 0.005 mg/kg, respectively.
